# Test results reported in US5041567A, “Antibacterial monic acid derivatives” (Beecham Group plc, priority 1982, dated 1991).
# Read-outs that look alike come from different tables or passages of the source.
# How the values were obtained:
# M. suipneumoniae NB12 = assay: MIC against mycoplasma in vitro; assay type: cell-based; conditions: Mesomycoplasma hyopneumoniae
# M. suipneumoniae JF 435 = assay: MIC against mycoplasma in vitro; assay type: cell-based; conditions: Mesomycoplasma hyopneumoniae, JF435, 144 h; M. suipneumoniae JF 435; 6 days, 37° C.; read-out: MIC
# M. suipneumoniae Str. 11 = assay: MIC against mycoplasma in vitro; assay type: cell-based; conditions: Mesomycoplasma hyopneumoniae, 144 h; M. suipneumoniae Str. 11; 6 days, 37° C.; read-out: MIC
# [1] = test system: M. suipneumoniae J2206/183^b; assay: MIC against mycoplasma in vitro; assay type: cell-based; conditions: Mesomycoplasma hyopneumoniae, 144 h
# M. suipneumoniae MS 16 = assay: MIC against mycoplasma in vitro; assay type: cell-based; conditions: Mesomycoplasma hyopneumoniae, MS16, 144 h
# M. suipneumoniae TAM 6N = assay: MIC against mycoplasma in vitro; assay type: cell-based; conditions: Mesomycoplasma hyopneumoniae, TAM6N, 144 h
# [2] = test system: M. suipneumoniae ATCC 25095; assay: MIC against mycoplasma in vitro; assay type: cell-based; conditions: Mesomycoplasma hyopneumoniae, ATCC25095, 144 h; M. suipneumoniae ATCC 25095; 6 days, 37° C.; read-out: MIC
# M. hyorhinis ATCC 25021 = assay: MIC against mycoplasma in vitro; assay type: cell-based; conditions: Mesomycoplasma hyorhinis, ATCC25021, 144 h; M. hyorhinis ATCC 25021; 6 days, 37° C.; read-out: MIC
# [3] = test system: M. hyosynoviae ATCC 25591; assay: MIC against mycoplasma in vitro; assay type: cell-based; conditions: 144 h
# [4] = test system: M. bovigenitalium ATCC 14173; assay: MIC against mycoplasma in vitro; assay type: cell-based; conditions: 144 h
# M. dispar NCTC 10125 = assay: MIC against mycoplasma in vitro; assay type: cell-based; conditions: 144 h
# E. coli ESS = assay: MIC against human bacteria in vitro; assay type: cell-based; conditions: Escherichia coli; E. coli ESS; 5% chocolated horse blood agar, 18 hours; read-out: MIC
# P. mirabilis 889 = assay: MIC against human bacteria in vitro; assay type: cell-based; conditions: Proteus mirabilis; P. mirabilis 889; 5% chocolated horse blood agar, 18 hours; read-out: MIC
# K. aerogenes A = assay: MIC against human bacteria in vitro; assay type: cell-based; conditions: Klebsiella aerogenes; K. aerogenes A; 5% chocolated horse blood agar, 18 hours; read-out: MIC
# [5] = test system: Ps. aeruginosa NCTC 10662; assay: MIC against human bacteria in vitro; assay type: cell-based; conditions: Pseudomonas aeruginosa, NCTC10662; Ps. aeruginosa NCTC 10662; 5% chocolated horse blood agar, 18 hours; read-out: MIC
# [6] = test system: Pasteurella multocida 1633; assay: MIC against human bacteria in vitro; assay type: cell-based
# [7] = test system: Haemophilus influenzae Wy21; assay: MIC against human bacteria in vitro; assay type: cell-based; conditions: Haemophilus influenzae Wy21; 5% chocolated horse blood agar, 18 hours; read-out: MIC
# [8] = test system: Neisseria catarrhalis 1502; assay: MIC against human bacteria in vitro; assay type: cell-based; conditions: Neisseria, 1502, 18 h
# Bacillus subtilis 6633 = assay: MIC against human bacteria in vitro; assay type: cell-based; conditions: Bacillus subtilis 6633; 5% chocolated horse blood agar, 18 hours; read-out: MIC
# [9] = test system: Corynebacterium xerosis 9755; assay: MIC against human bacteria in vitro; assay type: cell-based; conditions: Corynebacterium xerosis 9755; 5% chocolated horse blood agar, 18 hours; read-out: MIC
# Sarcina lutea 8340 = assay: MIC against human bacteria in vitro; assay type: cell-based; conditions: Micrococcus luteus; Sarcina lutea 8340; 5% chocolated horse blood agar, 18 hours; read-out: MIC
# Staph. aureus Oxford = assay: MIC against human bacteria in vitro; assay type: cell-based; conditions: Staphylococcus aureus; Staph. aureus Oxford; 5% chocolated horse blood agar, 18 hours; read-out: MIC
# Staph. aureus Russell = assay: MIC against human bacteria in vitro; assay type: cell-based; conditions: Staphylococcus aureus
# Staph. aureus W2827 = assay: MIC against human bacteria in vitro; assay type: cell-based; conditions: Staphylococcus aureus
# Strep. faecalis I = assay: MIC against human bacteria in vitro; assay type: cell-based; conditions: Enterococcus faecalis; Strep. faecalis I; 5% chocolated horse blood agar, 18 hours; read-out: MIC
# Strep. agalactiae 2788-B = assay: MIC against human bacteria in vitro; assay type: cell-based; conditions: Streptococcus agalactiae; Strep. agalactiae 2788-B; 5% chocolated horse blood agar, 18 hours; read-out: MIC
# S. dublin S7 = assay: MIC against veterinary bacteria in vitro; conditions: Salmonella enterica, S7, 18 h
# Description: (§1) The activity of the compounds of the Examples against various veterinarily important bacteria, was assayed in vitro using two-fold serial dilutions in Diagnostic Sensitivity Test Agar inoculated with 10^4 organisms.
# Past. multocida PA1 = assay: MIC against veterinary bacteria in vitro; conditions: Pasteurella multocida, PA1, 18 h
# Description: as §1
# [10] = test system: Corynebacterium pyogenes CY1; assay: MIC against veterinary bacteria in vitro; conditions: CY1, 18 h
# Description: as §1
# [11] = test system: Staph. aureus B4 (pen. resistant); assay: MIC against veterinary bacteria in vitro; conditions: Staphylococcus aureus, 18 h
# Description: as §1
# [12] = test system: Strep. suis (group D) SPS11; assay: MIC against veterinary bacteria in vitro; conditions: Streptococcus suis, 18 h
# Description: as §1
# Strep. uberis SPU1 = assay: MIC against veterinary bacteria in vitro; conditions: Streptococcus uberis, SPU1, 18 h
# Description: as §1
# Strep. agalactiae SPA1 = assay: MIC against veterinary bacteria in vitro; conditions: Streptococcus agalactiae, SPA1, 18 h
# Description: as §1
# [13] = test system: Strep. pyogenes R80/421-A; assay: MIC against human bacteria in vitro; assay type: cell-based; conditions: Streptococcus pyogenes; Strep. pyogenes R80/421-A; 5% chocolated horse blood agar, 18 hours; read-out: MIC
# Strep. spp. 64/848-C = assay: MIC against human bacteria in vitro; assay type: cell-based; conditions: Strep. spp. 64/848-C; 5% chocolated horse blood agar, 18 hours; read-out: MIC
Structure (SMILES),MIC (M. suipneumoniae JF 435) [mg/L],MIC (M. suipneumoniae Str. 11) [mg/L],MIC [2] [mg/L],MIC (M. hyorhinis ATCC 25021) [mg/L],MIC [3] [mg/L],MIC [4] [mg/L],MIC (M. dispar NCTC 10125) [mg/L],MIC (E. coli ESS) [mg/L],MIC (P. mirabilis 889) [mg/L],MIC (K. aerogenes A) [mg/L],MIC [5] [mg/L],MIC [7] [mg/L],MIC (Bacillus subtilis 6633) [mg/L],MIC [9] [mg/L],MIC (Sarcina lutea 8340) [mg/L],MIC (Staph. aureus Oxford) [mg/L],MIC (Strep. faecalis I) [mg/L],MIC (Strep. agalactiae 2788-B) [mg/L],MIC (S. dublin S7) [mg/L],MIC (Past. multocida PA1) [mg/L],other results
"C/C(=C\c1ncc(-c2cccc(C#N)c2)o1)C[C@@H]1OC[C@H](C[C@@H]2O[C@H]2[C@@H](C)[C@H](C)O)[C@@H](O)[C@H]1O [Example 5, 5-m-cyanophenyl-2-(1-normon-2-yl)oxazole A]",0.1,0.05,0.05,0.05,0.25,0.025,0.025,1.2,> 50,> 50,> 50,1.2,1.2,> 50,> 50,1.2,50,2.5,> 80,5,"MIC (M. suipneumoniae NB12; 144 h, M. suipneumoniae NB12, Friis broth, 0.9% agarose, 6 days, 37° C., read-out: MIC): 0.05 mg/L; MIC ([1]; M. suipneumoniae J2206/183^b, 6 days, 37° C., read-out: MIC): 0.1 mg/L; MIC (M. suipneumoniae MS 16; M. suipneumoniae MS 16, 6 days, 37° C., read-out: MIC): 0.05 mg/L; MIC (M. suipneumoniae TAM 6N; M. suipneumoniae TAM 6N, 6 days, 37° C., read-out: MIC): 0.1 mg/L; MIC ([6]; Pasteurella multocida, 1633, 18 h): 5 mg/L; MIC [8]: 5 mg/L; MIC (Staph. aureus Russell; 18 h): 5 mg/L; MIC (Staph. aureus W2827; W2827, 18 h): 5 mg/L; MIC [10]: 80 mg/L; MIC [11]: 1.25 mg/L; MIC [12]: 10 mg/L; MIC (Strep. uberis SPU1): 0.07 mg/L; MIC (Strep. agalactiae SPA1): 0.625 mg/L"
"C/C(=C\c1ncc(-c2cccc([S+](C)[O-])c2)o1)C[C@@H]1OC[C@H](C[C@@H]2O[C@H]2[C@@H](C)[C@H](C)O)[C@@H](O)[C@H]1O (stereo partly shown) [Example 25, 5-m-Methylsulphinylphenyl-2-(1-normon-2-yl)oxazole A]",0.5,0.5,0.5,0.5,1,0.25,0.25,4,> 128,> 128,> 128,2,2,128,128,4,> 128,2,> 80,5,"MIC (M. suipneumoniae NB12; NB12, 144 h): 0.25 mg/L; MIC [1]: 1 mg/L; MIC (M. suipneumoniae MS 16): 0.25 mg/L; MIC (M. suipneumoniae TAM 6N): 1 mg/L; MIC ([6]; Pasteurella multocida 1633, 5% chocolated horse blood agar, 18 hours, read-out: MIC): 16 mg/L; MIC (Staph. aureus Russell; Staph. aureus Russell, 5% chocolated horse blood agar, 18 hours, read-out: MIC): 32 mg/L; MIC (Staph. aureus W2827; Staph. aureus W2827, 5% chocolated horse blood agar, 18 hours, read-out: MIC): 32 mg/L; MIC [13]: 2 mg/L; MIC (Strep. spp. 64/848-C): 4 mg/L; MIC [10]: > 80 mg/L; MIC [11]: 10 mg/L; MIC [12]: 20 mg/L; MIC (Strep. uberis SPU1): 0.625 mg/L; MIC (Strep. agalactiae SPA1): 2.5 mg/L"
